≈ marks a conversion by molar mass, not a printed value. Blank lines part the entries; values can stand above or below the molecule they belong to.
Tests used:
Test in all cases: ≥ marks a high value that may be exact or a test limit, other limits are often not marked, values filed in µg/mL are converted to µM
[1] = system: Corynebacterium xerosis C875
[2] = system: Escherichia coli UB1005
[3] = system: Pseudomonas aeruginosa ATCC 27853
[4] = system: Staphylococcus epidermidis C621
[5] = system: Bacillus subtilis ATCC 6633
[6] = system: Escherichia coli ATCC 25922
[7] = system: Staphylococcus aureus ATCC 25923
[8] = system: Escherichia coli DC2
[9] = system: Enterococcus faecalis ATCC 29212
[10] = system: Escherichia coli ATCC 11775
[11] = system: Botrytis cinerea
[12] = system: Candida albicans ATCC 10231
[13] = system: Staphylococcus aureus ATCC 12600
[14] = system: Escherichia coli BW25113
[15] = system: Micrococcus luteus ATCC 9341
[16] = system: Escherichia coli NCTC 10418

- MIC [10]: ≥ 200 µM
- MIC [11]: 5 µM (≈ 7.3 µg/mL)
- MIC [12]: 100 µM (≈ 146 µg/mL)
- MIC [13]: 25 µM (≈ 36.5 µg/mL)
Compound: CC(C)C[C@H](NC(=O)[C@H](C)NC(=O)[C@H](CO)NC(=O)[C@@H](NC(=O)[C@@H](NC(=O)[C@H](CO)NC(=O)[C@H](CCCCN)NC(=O)[C@@H](NC(=O)[C@H](CC(C)C)NC(=O)CNC(=O)[C@H](CC(C)C)NC(=O)[C@H](CC(C)C)NC(=O)[C@H](CC(=O)O)NC(=O)[C@@H](N)Cc1ccccc1)C(C)C)C(C)C)C(C)C)C(N)=O [FDLLGLVKSVVSAL]

- MIC [10]: ≥ 200 µM
- MIC [11]: ≥ 200 µM
- MIC [12]: > 200 µM
- MIC [13]: ≥ 200 µM
Compound: CSCC[C@H](NC(=O)[C@H](C)NC(=O)[C@H](C)NC(=O)[C@@H]1CCCN1C(=O)[C@H](CO)NC(=O)[C@@H](N)CC(C)C)C(=O)N[C@@H](C)C(=O)N[C@@H](CO)C(=O)N[C@@H](CC(C)C)C(=O)N[C@@H](C)C(N)=O [LSPAAMASLA]

- MIC [1]: 0.5 µM (≈ 1.1 µg/mL)
- MIC [2]: 8 µM (≈ 17.6 µg/mL)
- MIC [3]: > 32 µM
- MIC [4]: 8 µM (≈ 17.6 µg/mL)
- MIC [5]: 2 µM (≈ 4.39 µg/mL)
- MIC [6]: 32 µM (≈ 70.3 µg/mL)
- MIC [7]: > 32 µM
- MIC [8]: 4 µM (≈ 8.78 µg/mL)
- MIC [9]: > 32 µM
Compound: C[C@H](NC(=O)[C@H](C)NC(=O)[C@H](C)NC(=O)[C@H](Cc1ccccc1)NC(=O)[C@H](C)NC(=O)[C@H](CCCCN)NC(=O)[C@@H](N)CCCCN)C(=O)N[C@@H](C)C(=O)N[C@@H](C)C(=O)N[C@@H](Cc1ccccc1)C(=O)N[C@@H](C)C(=O)N[C@@H](C)C(=O)N[C@@H](Cc1c[nH]c2ccccc12)C(=O)N[C@@H](C)C(=O)N[C@@H](C)C(=O)N[C@@H](Cc1ccccc1)C(=O)N[C@@H](C)C(=O)N[C@@H](CCCCN)C(=O)N[C@@H](CCCCN)C(=O)N[C@@H](CCCCN)C(=O)N[C@@H](CCCCN)C(N)=O [KKAFAAAAAFAAWAAFAKKKK]

- MIC [1]: 1 µM (≈ 2.35 µg/mL)
- MIC [2]: 16 µM (≈ 37.6 µg/mL)
- MIC [4]: ≥ 32 µM
- MIC [8]: 8 µM (≈ 18.8 µg/mL)
Compound: C[C@H](NC(=O)[C@H](C)NC(=O)[C@H](C)NC(=O)[C@H](CS)NC(=O)[C@H](C)NC(=O)[C@H](C)NC(=O)[C@H](C)NC(=O)[C@H](CCCCN)NC(=O)[C@@H](N)CCCCN)C(=O)N[C@@H](C)C(=O)N[C@@H](C)C(=O)N[C@@H](CS)C(=O)N[C@@H](C)C(=O)N[C@@H](C)C(=O)N[C@@H](Cc1c[nH]c2ccccc12)C(=O)N[C@@H](C)C(=O)N[C@@H](C)C(=O)N[C@@H](CS)C(=O)N[C@@H](C)C(=O)N[C@@H](C)C(=O)N[C@@H](C)C(=O)N[C@@H](CCCCN)C(=O)N[C@@H](CCCCN)C(=O)N[C@@H](CCCCN)C(=O)N[C@@H](CCCCN)C(N)=O [KKAAACAAAAACAAWAACAAAKKKK]

- MIC [14]: 16 µM (≈ 35.9 µg/mL)
Compound: CC[C@H](C)[C@H](NC(=O)[C@@H]1CCCN1C(=O)[C@@H]1CCCN1C(=O)[C@H](CCCN=C(N)N)NC(=O)[C@H](Cc1c[nH]c2ccccc12)NC(=O)[C@@H](N)CCCN=C(N)N)C(=O)N[C@@H](CCCN=C(N)N)C(=O)N[C@@H](CCCN=C(N)N)C(=O)N1CCC[C@H]1C(=O)N1CCC[C@H]1C(=O)N[C@H](C(=O)N[C@@H](CCCN=C(N)N)C(=O)N1CCC[C@H]1C(=O)N1CCC[C@H]1C(=O)N[C@@H](Cc1c[nH]c2ccccc12)C(=O)N[C@@H](Cc1ccc(O)cc1)C(=O)N1CCC[C@H]1C(=O)O)[C@@H](C)CC [RWRPPIRRPPIRPPWYP]

- MIC [16]: ≥ 70 µM
Compound: CSCC[C@H](NC(=O)[C@H](Cc1c[nH]c2ccccc12)NC(=O)[C@@H]1CCCN1C(=O)[C@@H]1CCCN1C(=O)[C@H](Cc1ccccc1)NC(=O)[C@@H](NC(=O)[C@H](Cc1cnc[nH]1)NC(=O)[C@H](Cc1ccccc1)NC(=O)[C@@H](N)CO)C(C)C)C(=O)N[C@H]1CSSC[C@@H](C(=O)O)NC(=O)[C@H](CCCCN)NC(=O)[C@H](CCCCN)NC(=O)[C@H](CC(C)C)NC(=O)[C@H](CO)NC(=O)[C@H](CCCCN)NC1=O [SFHVFPPWMCKSLKKC]

Further lines, the molecule ahead of its results:

Compound: C[C@H](NC(=O)[C@H](C)NC(=O)[C@H](C)NC(=O)[C@H](Cc1ccccc1)NC(=O)[C@H](C)NC(=O)[C@H](C)NC(=O)[C@H](C)NC(=O)[C@H](CCCCN)NC(=O)[C@@H](N)CCCCN)C(=O)N[C@@H](C)C(=O)N[C@@H](C)C(=O)N[C@@H](Cc1ccccc1)C(=O)N[C@@H](C)C(=O)N[C@@H](C)C(=O)N[C@@H](Cc1c[nH]c2ccccc12)C(=O)N[C@@H](C)C(=O)N[C@@H](C)C(=O)N[C@@H](Cc1ccccc1)C(=O)N[C@@H](C)C(=O)N[C@@H](C)C(=O)N[C@@H](C)C(=O)N[C@@H](CCCCN)C(=O)N[C@@H](CCCCN)C(=O)N[C@@H](CCCCN)C(=O)N[C@@H](CCCCN)C(N)=O [KKAAAFAAAAAFAAWAAFAAAKKKK]
- MIC [1]: 0.25 µM (≈ 0.62 µg/mL)
- MIC [2]: 16 µM (≈ 39.7 µg/mL)
- MIC [3]: 8 µM (≈ 19.8 µg/mL)
- MIC [4]: 2 µM (≈ 4.96 µg/mL)
- MIC [5]: 1 µM (≈ 2.48 µg/mL)
- MIC [6]: > 32 µM
- MIC [7]: > 32 µM
- MIC [8]: 4 µM (≈ 9.92 µg/mL)
- MIC [9]: > 32 µM

Compound: CC(C)C[C@H](NC(=O)[C@H](Cc1ccc(O)cc1)NC(=O)[C@@H]1CCCN1)C(=O)N1CCC[C@H]1C(=O)N[C@@H](CCCN=C(N)N)C(=O)N1CCC[C@H]1C(=O)NCC(=O)N[C@@H](CCCN=C(N)N)C(=O)N[C@@H](CCCN=C(N)N)C(=O)N1CCC[C@H]1C(=O)N[C@@H](CCCN=C(N)N)C(=O)N[C@@H](Cc1ccccc1)C(=O)N1CCC[C@H]1C(=O)N1CCC[C@H]1C(=O)N1CCC[C@H]1C(=O)N[C@@H](Cc1ccccc1)C(=O)N1CCC[C@H]1C(=O)O [PYLPRPGRRPRFPPPFP]
- MIC [14]: ≥ 64 µM

Compound: CC[C@H](C)[C@H](NC(=O)[C@@H]1CCCN1C(=O)[C@@H]1CCCN1C(=O)[C@H](CCCN=C(N)N)NC(=O)[C@H](Cc1ccccc1)NC(=O)[C@@H](N)CCCN=C(N)N)C(=O)N[C@@H](CCCN=C(N)N)C(=O)N[C@@H](CCCN=C(N)N)C(=O)N1CCC[C@H]1C(=O)N1CCC[C@H]1C(=O)N[C@H](C(=O)N[C@@H](CCCN=C(N)N)C(=O)N1CCC[C@H]1C(=O)N1CCC[C@H]1C(=O)N[C@@H](Cc1ccccc1)C(=O)N[C@@H](Cc1c[nH]c2ccccc12)C(=O)N1CCC[C@H]1C(=O)O)[C@@H](C)CC [RFRPPIRRPPIRPPFWP]
- MIC [14]: 16 µM (≈ 35 µg/mL)

Compound: CC[C@H](C)[C@H](N)C(=O)N[C@@H](C)C(=O)N1CCC[C@H]1C(=O)N[C@@H](Cc1c[nH]c2ccccc12)C(=O)N[C@@H](CCCCN)C(=O)N[C@@H](Cc1c[nH]c2ccccc12)C(=O)N1CCC[C@H]1C(=O)N[C@@H](Cc1c[nH]c2ccccc12)C(=O)N[C@@H](Cc1c[nH]c2ccccc12)C(=O)N1CCC[C@H]1C(=O)N[C@@H](Cc1c[nH]c2ccccc12)C(=O)N[C@@H](CCCN=C(N)N)C(=O)N[C@@H](CCCN=C(N)N)C(N)=O [IAPWKWPWWPWRR]
- MIC [15]: 0.4 µM (≈ 0.746 µg/mL)

Compound: C[C@H](NC(=O)[C@H](C)NC(=O)[C@H](C)NC(=O)[C@H](Cc1ccccc1)NC(=O)[C@H](C)NC(=O)[C@H](C)NC(=O)[C@H](Cc1c[nH]c2ccccc12)NC(=O)[C@H](C)NC(=O)[C@H](C)NC(=O)[C@H](Cc1ccccc1)NC(=O)[C@H](C)NC(=O)[C@H](C)NC(=O)[C@H](C)NC(=O)[C@H](C)NC(=O)[C@H](C)NC(=O)[C@H](Cc1ccccc1)NC(=O)[C@H](C)NC(=O)[C@H](C)NC(=O)[C@H](C)NC(=O)[C@H](CCCCN)NC(=O)[C@H](CCCCN)NC(=O)[C@H](CCCCN)NC(=O)[C@H](CCCCN)NC(=O)[C@H](CCCCN)NC(=O)[C@@H](N)CCCCN)C(N)=O [KKKKKKAAAFAAAAAFAAWAAFAAA]
- MIC [1]: 1 µM (≈ 2.48 µg/mL)
- MIC [2]: 16 µM (≈ 39.7 µg/mL)
- MIC [3]: 32 µM (≈ 79.4 µg/mL)
- MIC [4]: 4 µM (≈ 9.92 µg/mL)
- MIC [6]: 16 µM (≈ 39.7 µg/mL)
- MIC [8]: 8 µM (≈ 19.8 µg/mL)
